The source of these data is patent US9499510B2, “Pro-drug compounds” (Proximagen Limited, priority 2012, dated 2016).

Data set [1] in a line: Solubility in aqueous solution (pH 2 to 10). The class given is physicochemical. An excerpt:
In an embodiment, prodrugs of the present invention are suitable for oral administration. The skilled person understands that the pH of the gastrointestinal tract changes along its length. For example, the stomach has a pH of around pH 1.5 and the GI tract after the stomach has a pH of around 5 to 7.5. For more detail see, for example, Measurement of gastrointestinal pH profiles in normal ambulant human subjects, Gut. 1988 August; 29(8): 1035-1041. Improved solubility is expected to result in improved absorption, and therefore improved oral bioavailability. Thus improved solubility at any pH value between around pH 1.5 to 8 is expected to improve oral bioavailability. Compounds of the invention were assessed for solubility in aqueous solutions having a pH of from 2 to 10. In an embodiment prodrugs of the invention have a solubility of >0.5 mg/mL in an aqueous solution having a pH of from 2 to 10, including from 2 to 8. In an embodiment prodrugs have a solubility of >5.0 mg/mL, or >10.0 mg/mL, >100.0 mg/mL, or >200.0 mg/mL in an aqueous solution having a pH of from 2 to 10, including from 2 to 8. In an embodiment the prodrugs have the aforementioned aqueous solubility at a pH within the range of from 4 to 8, or from 6 to 8.
In an embodiment, prodrugs of the invention are administered intravenously. High prodrug solubility is advantageous in order to reduce the volume of solution administered to the patient, and to reduce the risk of damage to the circulatory system. Solubility in an aqueous solution having a pH of from 2 to 10 of >10 mg/mL is preferred. Yet more preferred is solubility in an aqueous solution having a pH of from 2 to 10 of >30 mg/mL or >100.0 mg/mL. Yet more preferred is solubility in an aqueous solution having a pH of from 2 to 10 of >200.0 mg/mL. The solubility is measured in an aqueous solution having a pH of from 2 to 10, which pH range is advantageous for intravenous prodrug delivery. See, for example, A guide on intravenous drug compatibilities based on their pH, Nasser S C et al./Pharmacie Globale (IJCP) 2010, 5 (01)). In an embodiment the prodrugs of the claimed invention have solubility of >10 mg/mL in an aqueous solution having a pH of from 2 to 10. In an embodiment the prodrugs have the aforementioned aqueous solubility at a pH within the range of from 2 to 8, or from 4 to 8, or from 6 to 8. The solubility of the Examples is illustrated in Table 1.

The target of data set [2] is T1, human ether a go-go related gene (hERG) K+ channel (Homo sapiens, UniProt Q12809).
T1 construct: Chinese Hamster Lung cell line stably expressing the full length hERG channel; expressed in transfected cells; host or cells: Chinese Hamster Lung cell line
T1 sequence (Q12809 whole entry): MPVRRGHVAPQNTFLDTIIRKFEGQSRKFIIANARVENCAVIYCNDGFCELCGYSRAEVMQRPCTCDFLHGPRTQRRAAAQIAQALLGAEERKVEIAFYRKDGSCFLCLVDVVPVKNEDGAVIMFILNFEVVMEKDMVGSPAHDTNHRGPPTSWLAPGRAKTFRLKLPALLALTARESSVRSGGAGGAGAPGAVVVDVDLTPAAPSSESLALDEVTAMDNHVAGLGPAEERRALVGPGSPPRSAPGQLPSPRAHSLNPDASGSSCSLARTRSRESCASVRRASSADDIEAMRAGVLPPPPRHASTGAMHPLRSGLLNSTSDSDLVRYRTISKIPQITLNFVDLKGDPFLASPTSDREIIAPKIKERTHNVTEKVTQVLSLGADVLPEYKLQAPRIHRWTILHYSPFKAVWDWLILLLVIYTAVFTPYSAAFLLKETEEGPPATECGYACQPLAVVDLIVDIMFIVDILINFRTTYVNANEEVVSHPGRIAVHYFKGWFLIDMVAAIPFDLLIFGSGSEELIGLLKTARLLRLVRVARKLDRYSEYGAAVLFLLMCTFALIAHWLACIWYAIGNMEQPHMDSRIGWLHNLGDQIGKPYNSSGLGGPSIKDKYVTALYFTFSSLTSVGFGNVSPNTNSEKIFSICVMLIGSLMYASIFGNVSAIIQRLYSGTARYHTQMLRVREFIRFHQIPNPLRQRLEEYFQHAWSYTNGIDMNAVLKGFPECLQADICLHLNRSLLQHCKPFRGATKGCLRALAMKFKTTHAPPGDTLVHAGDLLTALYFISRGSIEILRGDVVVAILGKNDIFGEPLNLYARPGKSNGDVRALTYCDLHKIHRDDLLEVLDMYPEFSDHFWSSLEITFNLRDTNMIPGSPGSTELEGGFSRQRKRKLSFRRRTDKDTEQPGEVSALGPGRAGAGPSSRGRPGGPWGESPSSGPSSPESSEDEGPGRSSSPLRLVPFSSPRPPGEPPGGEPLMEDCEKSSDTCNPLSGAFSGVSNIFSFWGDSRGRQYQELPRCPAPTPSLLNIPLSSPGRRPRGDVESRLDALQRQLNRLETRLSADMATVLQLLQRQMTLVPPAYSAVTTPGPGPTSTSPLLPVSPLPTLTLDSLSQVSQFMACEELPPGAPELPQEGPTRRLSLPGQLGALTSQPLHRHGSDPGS
The experiment in a line: hERG assay, IonWorks patch clamp electrophysiology. Particulars: Chinese Hamster Lung cell line stably expressing hERG; maximum assay concentration 33 uM. It is filed as cell-based. Here is the method: Compounds of the invention were tested for inhibition of the human ether a go-go related gene (hERG) K^+ channel using IonWorks patch clamp electrophysiology. 8 Point concentration-response curves were generated on two occasions using 3-fold serial dilutions from the maximum assay concentration (33 uM). Electrophysiological recordings were made from a Chinese Hamster Lung cell line stably expressing the full length hERG channel. Single cell ion currents were measured in the perforated patch clamp configuration (100 ug/mL amphoterocin) at room temperature using an IonWorks Quattro instrument. The internal solution contained 140 mM KCl, 1 mM MgCl2, 1 mM EGTA and 20 mM HEPES and was buffered to pH 7.3. The external solution contained 138 mM NaCl, 2.7 mM KCl, 0.9 mM CaCl2, 0.5 mM MgCl2, 8 mM Na2HPO4 and 1.5 mM KH2PO4, and was buffered to pH 7.3. Cells were clamped at a holding potential of […] for 30 s and then stepped to +40 mV for 1 s. This was followed by a hyperpolarising step of 1 s to […] to evoke the hERG tail current. This sequence was repeated 5 times at a frequency of 0.25 Hz. Currents were measured from the tail step at the 5th pulse, and referenced to the holding current. Compounds were incubated for 6-7 min prior to a second measurement of the hERG signal using an identical pulse train. A minimum of 17 cells were required for each pIC50 curve fit. […]

Structures can show the parent of a compound that is named as a salt.

Turning to `CC(=O)O[C@H]1[C@@H](NC(=O)c2ccc(F)c(Cl)c2)c2cc(C(C)=O)ccc2OC1(C)C` [Example 3, (3S,4S)-6-Acetyl-4-[(3-chloro-4-fluorobenzene)amido]-2,2-dimethyl-3,4-dihydro-2H-1-benzopyran-3-yl acetate], the solubility in data set [1] (pH 3.5, aqueous buffer) is less than 250 µg/mL. Regarding `CC(=O)c1ccc2c(c1)[C@H](NC(=O)c1ccc(F)c(Cl)c1)[C@H](OC(=O)CNC(C)C)C(C)(C)O2.Cl` [Example 11, (3S,4S)-6-Acetyl-4-[(3-chloro-4-fluorobenzene)amido]-2,2-di methyl-3,4-dihydro-2H-1-benzopyran-3-yl 2-[(propan-2-yl)amino]acetate hydrochloride], in data set [1] (pH 4.2, aqueous buffer), the solubility was more than 10000 µg/mL.

The compound `CC(=O)c1ccc2c(c1)[C@H](NC(=O)c1ccc(F)c(Cl)c1)[C@H](OC(=O)CN)C(C)(C)O2` [Example 6, (3S,4S)-6-Acetyl-4-[(3-chloro-4-fluorobenzene)amido]-2,2-di methyl-3,4-dihydro-2H-1-benzopyran-3-yl 2-aminoacetate hydrochloride] registered a solubility in data set [1] (aqueous buffer, pH 4.0) of more than 20000 µg/mL. The compound `CC(=O)c1ccc2c(c1)[C@H](NC(=O)c1ccc(F)c(Cl)c1)[C@H](OP(=O)(O)O)C(C)(C)O2` [Example 1, {[(3S,4S)-6-Acetyl-4-[(3-chloro-4-fluorobenzene)amido]-2,2-dimethyl-3,4-dihydro-2H-1-benzopyran-3-yl]oxy}phosphonic acid] came in with a solubility in data set [1] (pH 5.7, aqueous buffer) of more than 50000 µg/mL. The IC50 in data set [2] is more than 11 µM. As for `CC(=O)c1ccc2c(c1)[C@H](NC(=O)c1ccc(F)c(Cl)c1)[C@H](OCOP(=O)(O)O)C(C)(C)O2` [Example 8, ({[(3S,4S)-6-Acetyl-4-[(3-chloro-4-fluorobenzene)amido]-2,2-dimethyl-3,4-dihydro-2H-1-benzopyran-3-yl]oxy}methoxy)phosphonic acid diamine], the solubility in data set [1] (pH 5.7, aqueous buffer) is more than 200000 µg/mL. Take `CCCNCC(=O)O[C@H]1[C@@H](NC(=O)c2ccc(F)c(Cl)c2)c2cc(C(C)=O)ccc2OC1(C)C.Cl` [Example 10, (3S,4S)-6-Acetyl-4-[(3-chloro-4-fluorobenzene)amido]-2,2-di methyl-3,4-dihydro-2H-1-benzopyran-3-yl 2-(propylamino)acetate hydrochloride]: the solubility in data set [1] (pH 4.4, aqueous buffer) is more than 10000 µg/mL.

With `CC(=O)OCO[C@H]1[C@@H](NC(=O)c2ccc(F)c(Cl)c2)c2cc(C(C)=O)ccc2OC1(C)C` [Example 4, {[(3S,4S)-6-Acetyl-4-[(3-chloro-4-fluorobenzene)amido]-2,2-dimethyl-3,4-dihydro-2H-1-benzopyran-3-yl]oxy}methyl acetate], in data set [1] (pH 3.5, aqueous buffer), the solubility is less than 250 µg/mL. Consider `CC(=O)c1ccc2c(c1)[C@H](NC(=O)c1ccc(F)c(Cl)c1)[C@H](OC(=O)CN(C)C)C(C)(C)O2` [Example 2, (3S,4S)-6-Acetyl-4-[(3-chloro-4-fluorobenzene)amido]-2,2-dimethyl-3,4-dihydro-2H-1-benzopyran-3-yl 2-(dimethylamino)acetate hydrochloride], for which, in data set [1] (pH 3.6, aqueous buffer), the solubility was more than 20000 µg/mL. For the compound `CC(=O)c1ccc2c(c1)[C@H](NC(=O)c1ccc(F)c(Cl)c1)[C@H](OCOC(=O)CN(C)C)C(C)(C)O2` [Example 5, {[(3S,4S)-6-Acetyl-4-[(3-chloro-4-fluorobenzene)amido]-2,2-dimethyl-3,4-dihydro-2H-1-benzopyran-3-yl]oxy}methyl 2-(dimethylamino)acetate], the solubility in data set [1] (aqueous buffer, pH 3.0) is more than 2000 µg/mL. In data set [1] (pH 2.7, aqueous buffer), `CC(=O)c1ccc2c(c1)[C@H](NC(=O)c1ccc(F)c(Cl)c1)[C@H](OC(=O)[C@@H](N)CC(C)C)C(C)(C)O2.Cl` [Example 9, (3S,4S)-6-Acetyl-4-[(3-chloro-4-fluorobenzene)amido]-2,2-di methyl-3,4-dihydro-2H-1-benzopyran-3-yl(2S)-2-amino-4-methylpentanoate hydrochloride] yielded a solubility of more than 5000 µg/mL. In turn, `CNCC(=O)O[C@H]1[C@@H](NC(=O)c2ccc(F)c(Cl)c2)c2cc(C(C)=O)ccc2OC1(C)C` [Example 7, (3S,4S)-6-acetyl-4-[(3-chloro-4-fluorobenzene)amido]-2,2-di methyl-3,4-dihydro-2H-1-benzopyran-3-yl 2-(methylamino)acetate hydrochloride] showed a solubility in data set [1] (pH 4.4, aqueous buffer) of more than 20000 µg/mL.
